Data from ChEMBL document CHEMBL5058641, “Data for DCP probe TP-050” (2022).

Columns and labels:
[1] = biological target: T1, Sodium-dependent dopamine transporter (Homo sapiens, UniProt Q01959); assay: GPCRScan assay: inhibition of DAT; design: radioligand conc. used [nm] 3.6 – 16.0, parental cells stable HEK
[2] = biological target: Glutamate receptor ionotropic, NMDA 2A (Homo sapiens, UniProt Q05586+Q12879); assay: GluN2A-containing NMDA receptor (Ca2+ influx) assay (EC50)
[3] = AMPA receptor scintillation proximity binding assay; design: species or system Homo sapiens
[4] = biological target: 5-hydroxytryptamine receptor 1A (Homo sapiens) (UniProt P08908); conditions: Compound concentration 10.0 uM
[5] = biological target: 5-hydroxytryptamine receptor 1B (Homo sapiens, UniProt P28222); conditions: Compound concentration 10.0 uM
[6] = biological target: 5-hydroxytryptamine receptor 1D (Homo sapiens, UniProt P28221); conditions: Compound concentration 10.0 uM
[7] = biological target: 5-hydroxytryptamine receptor 1E (Homo sapiens) (UniProt P28566); conditions: Compound concentration 10.0 uM
5-hydroxytryptamine receptor 1E (Homo sapiens), sequence (P28566 whole entry): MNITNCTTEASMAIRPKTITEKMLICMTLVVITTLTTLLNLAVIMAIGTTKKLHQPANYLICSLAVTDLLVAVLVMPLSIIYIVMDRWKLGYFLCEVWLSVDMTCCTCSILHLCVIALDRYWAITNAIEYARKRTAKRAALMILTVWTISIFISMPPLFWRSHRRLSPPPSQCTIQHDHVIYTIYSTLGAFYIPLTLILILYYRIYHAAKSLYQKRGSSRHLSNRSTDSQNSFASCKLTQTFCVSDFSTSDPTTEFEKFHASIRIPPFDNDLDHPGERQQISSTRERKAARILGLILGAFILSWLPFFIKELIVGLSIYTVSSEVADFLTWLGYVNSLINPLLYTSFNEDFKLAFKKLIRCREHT

[8] = biological target: 5-hydroxytryptamine receptor 2A (Homo sapiens, UniProt P28223); conditions: Compound concentration 10.0 uM
5-hydroxytryptamine receptor 2A, sequence (P28223 whole entry): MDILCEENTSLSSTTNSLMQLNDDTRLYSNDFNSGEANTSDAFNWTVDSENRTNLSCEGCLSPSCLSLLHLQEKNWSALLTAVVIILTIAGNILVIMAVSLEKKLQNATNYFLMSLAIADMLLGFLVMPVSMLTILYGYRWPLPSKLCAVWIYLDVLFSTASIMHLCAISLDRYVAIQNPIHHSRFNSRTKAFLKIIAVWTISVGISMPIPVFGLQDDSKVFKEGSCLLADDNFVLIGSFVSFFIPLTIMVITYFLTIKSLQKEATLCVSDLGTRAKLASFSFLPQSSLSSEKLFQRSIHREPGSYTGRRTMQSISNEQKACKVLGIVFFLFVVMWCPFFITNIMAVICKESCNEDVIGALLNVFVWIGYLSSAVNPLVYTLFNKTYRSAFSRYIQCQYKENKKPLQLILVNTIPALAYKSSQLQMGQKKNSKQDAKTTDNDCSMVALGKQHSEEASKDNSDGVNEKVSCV

[9] = biological target: 5-hydroxytryptamine receptor 2B (Homo sapiens, UniProt P41595); conditions: Compound concentration 10.0 uM
[10] = biological target: 5-hydroxytryptamine receptor 2C (Homo sapiens) (UniProt P28335); conditions: Compound concentration 10.0 uM
[11] = biological target: 5-hydroxytryptamine receptor 3A (Homo sapiens) (UniProt P46098); conditions: Compound concentration 10.0 uM
[12] = biological target: 5-hydroxytryptamine receptor 5A (Homo sapiens) (UniProt P47898); conditions: Compound concentration 10.0 uM
5-hydroxytryptamine receptor 5A (Homo sapiens), sequence (P47898 whole entry): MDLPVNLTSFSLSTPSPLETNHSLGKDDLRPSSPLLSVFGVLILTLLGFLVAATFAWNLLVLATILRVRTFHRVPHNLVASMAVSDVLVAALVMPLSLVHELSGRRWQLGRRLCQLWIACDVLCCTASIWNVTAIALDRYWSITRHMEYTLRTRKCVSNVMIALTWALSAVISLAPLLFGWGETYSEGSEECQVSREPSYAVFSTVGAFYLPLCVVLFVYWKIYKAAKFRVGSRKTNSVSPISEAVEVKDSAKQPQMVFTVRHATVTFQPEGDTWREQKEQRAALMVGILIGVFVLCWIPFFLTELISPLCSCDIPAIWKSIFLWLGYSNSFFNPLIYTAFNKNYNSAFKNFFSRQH

[13] = biological target: 5-hydroxytryptamine receptor 6 (Homo sapiens) (UniProt P50406); conditions: Compound concentration 10.0 uM
5-hydroxytryptamine receptor 6 (Homo sapiens), sequence (P50406 whole entry): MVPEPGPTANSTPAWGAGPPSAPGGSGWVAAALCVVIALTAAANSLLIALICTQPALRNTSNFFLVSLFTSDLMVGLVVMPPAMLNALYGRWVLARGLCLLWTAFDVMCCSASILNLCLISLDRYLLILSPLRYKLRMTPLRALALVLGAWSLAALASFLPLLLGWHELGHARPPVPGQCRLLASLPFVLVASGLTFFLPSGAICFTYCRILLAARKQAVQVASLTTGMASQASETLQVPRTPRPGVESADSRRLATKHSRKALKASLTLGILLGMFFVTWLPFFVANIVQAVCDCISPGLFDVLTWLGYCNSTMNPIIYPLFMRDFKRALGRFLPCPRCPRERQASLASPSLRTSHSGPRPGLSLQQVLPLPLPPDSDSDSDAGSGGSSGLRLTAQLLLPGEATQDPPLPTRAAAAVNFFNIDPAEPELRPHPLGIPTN

[14] = biological target: D(1A) dopamine receptor (Homo sapiens, UniProt P21728); conditions: Compound concentration 10.0 uM
[15] = biological target: D(2) dopamine receptor (Homo sapiens, UniProt P14416); conditions: Compound concentration 10.0 uM
[16] = biological target: D(3) dopamine receptor (Homo sapiens) (UniProt P35462); conditions: Compound concentration 10.0 uM
[17] = biological target: D(4) dopamine receptor (Homo sapiens) (UniProt P21917); conditions: Compound concentration 10.0 uM
[18] = biological target: Sodium-dependent serotonin transporter (Homo sapiens, UniProt P31645); conditions: Compound concentration 10.0 uM
[19] = biological target: Sodium-dependent noradrenaline transporter (Homo sapiens, UniProt P23975); conditions: Compound concentration 10.0 uM
[20] = biological target: T1, Sodium-dependent dopamine transporter; conditions: Compound concentration 10.0 uM
[21] = biological target: Mu-type opioid receptor (Homo sapiens, UniProt P35372); conditions: Compound concentration 10.0 uM
Mu-type opioid receptor, sequence (P35372 whole entry): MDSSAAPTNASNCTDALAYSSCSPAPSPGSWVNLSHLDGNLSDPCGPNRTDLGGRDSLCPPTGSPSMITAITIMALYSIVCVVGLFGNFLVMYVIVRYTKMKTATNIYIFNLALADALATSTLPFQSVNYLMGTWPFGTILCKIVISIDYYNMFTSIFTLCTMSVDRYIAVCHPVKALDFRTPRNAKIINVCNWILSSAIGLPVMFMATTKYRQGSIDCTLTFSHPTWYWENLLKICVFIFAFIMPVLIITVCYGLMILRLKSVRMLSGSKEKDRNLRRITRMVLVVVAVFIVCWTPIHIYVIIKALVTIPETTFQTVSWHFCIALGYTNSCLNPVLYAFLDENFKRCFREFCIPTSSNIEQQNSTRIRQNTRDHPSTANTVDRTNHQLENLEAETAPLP

[22] = biological target: Delta-type opioid receptor (Homo sapiens, UniProt P41143); conditions: Compound concentration 10.0 uM
Delta-type opioid receptor, sequence (P41143 whole entry): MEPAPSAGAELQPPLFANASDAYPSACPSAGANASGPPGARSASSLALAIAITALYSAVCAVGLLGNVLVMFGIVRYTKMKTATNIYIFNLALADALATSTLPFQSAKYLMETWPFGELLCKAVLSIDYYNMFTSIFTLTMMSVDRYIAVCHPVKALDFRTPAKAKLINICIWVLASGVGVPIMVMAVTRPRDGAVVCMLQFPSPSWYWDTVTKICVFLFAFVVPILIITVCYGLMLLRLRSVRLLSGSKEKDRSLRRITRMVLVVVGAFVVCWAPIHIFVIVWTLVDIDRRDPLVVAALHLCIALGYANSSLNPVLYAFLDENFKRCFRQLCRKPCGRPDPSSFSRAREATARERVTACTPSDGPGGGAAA

[23] = biological target: Kappa-type opioid receptor (Homo sapiens, UniProt P41145); conditions: Compound concentration 10.0 uM
[24] = biological target: Histamine H1 receptor (Homo sapiens, UniProt P35367); conditions: Compound concentration 10.0 uM
[25] = biological target: Histamine H2 receptor (Homo sapiens, UniProt P25021); conditions: Compound concentration 10.0 uM
[26] = biological target: Histamine H3 receptor (Homo sapiens) (UniProt Q9Y5N1); conditions: Compound concentration 10.0 uM
[27] = biological target: Histamine H4 receptor (Homo sapiens) (UniProt Q9H3N8); conditions: Compound concentration 10.0 uM
[28] = biological target: Alpha-1B adrenergic receptor (Homo sapiens) (UniProt P35368); conditions: Compound concentration 10.0 uM
[29] = biological target: Alpha-2A adrenergic receptor (Homo sapiens) (UniProt P08913); conditions: Compound concentration 10.0 uM
[30] = biological target: Alpha-2B adrenergic receptor (Homo sapiens) (UniProt P18089); conditions: Compound concentration 10.0 uM
[31] = biological target: Alpha-2C adrenergic receptor (Homo sapiens) (UniProt P18825); conditions: Compound concentration 10.0 uM
[32] = biological target: Beta-1 adrenergic receptor (Homo sapiens, UniProt P08588); conditions: Compound concentration 10.0 uM
Beta-1 adrenergic receptor, sequence (P08588 whole entry, looked up): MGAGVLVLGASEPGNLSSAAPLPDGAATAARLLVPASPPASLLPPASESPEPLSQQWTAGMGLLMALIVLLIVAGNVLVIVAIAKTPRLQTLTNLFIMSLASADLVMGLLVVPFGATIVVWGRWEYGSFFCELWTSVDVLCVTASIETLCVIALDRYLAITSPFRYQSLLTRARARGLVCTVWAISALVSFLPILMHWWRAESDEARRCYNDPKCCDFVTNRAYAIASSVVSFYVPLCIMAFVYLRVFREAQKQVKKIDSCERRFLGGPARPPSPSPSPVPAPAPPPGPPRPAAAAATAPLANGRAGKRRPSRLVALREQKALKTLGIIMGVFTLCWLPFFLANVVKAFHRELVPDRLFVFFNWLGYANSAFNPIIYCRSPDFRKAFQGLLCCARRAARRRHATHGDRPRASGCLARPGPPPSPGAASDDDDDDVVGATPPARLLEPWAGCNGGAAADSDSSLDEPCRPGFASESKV

[33] = biological target: Muscarinic acetylcholine receptor M1 (Homo sapiens) (UniProt P11229); conditions: Compound concentration 10.0 uM
[34] = biological target: Muscarinic acetylcholine receptor M4 (Homo sapiens) (UniProt P08173); conditions: Compound concentration 10.0 uM
Muscarinic acetylcholine receptor M4 (Homo sapiens), sequence (P08173 whole entry): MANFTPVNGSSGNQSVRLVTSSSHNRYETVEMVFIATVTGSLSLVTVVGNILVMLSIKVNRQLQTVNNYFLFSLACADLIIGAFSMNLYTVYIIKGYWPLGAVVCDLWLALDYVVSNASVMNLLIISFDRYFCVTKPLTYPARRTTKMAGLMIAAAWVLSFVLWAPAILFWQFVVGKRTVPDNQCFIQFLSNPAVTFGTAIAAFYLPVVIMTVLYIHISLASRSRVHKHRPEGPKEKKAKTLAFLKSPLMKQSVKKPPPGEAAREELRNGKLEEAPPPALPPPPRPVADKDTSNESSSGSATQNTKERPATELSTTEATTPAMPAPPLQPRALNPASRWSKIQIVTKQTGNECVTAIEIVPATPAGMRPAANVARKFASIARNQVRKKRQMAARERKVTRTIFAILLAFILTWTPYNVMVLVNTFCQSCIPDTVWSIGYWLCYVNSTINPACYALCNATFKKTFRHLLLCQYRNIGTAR

[35] = biological target: Beta-3 adrenergic receptor (Homo sapiens) (UniProt P13945); conditions: Compound concentration 10.0 uM
Beta-3 adrenergic receptor (Homo sapiens), sequence (P13945 whole entry, looked up): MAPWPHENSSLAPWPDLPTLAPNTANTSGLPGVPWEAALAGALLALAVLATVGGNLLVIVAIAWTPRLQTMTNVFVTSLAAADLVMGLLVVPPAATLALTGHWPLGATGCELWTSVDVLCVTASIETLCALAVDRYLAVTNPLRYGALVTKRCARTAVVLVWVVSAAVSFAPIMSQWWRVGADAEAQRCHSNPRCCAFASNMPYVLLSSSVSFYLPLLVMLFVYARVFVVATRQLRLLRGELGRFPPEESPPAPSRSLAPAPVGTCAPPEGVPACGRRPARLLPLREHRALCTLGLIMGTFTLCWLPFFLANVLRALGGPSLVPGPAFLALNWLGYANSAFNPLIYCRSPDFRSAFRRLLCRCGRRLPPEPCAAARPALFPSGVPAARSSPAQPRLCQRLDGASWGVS

[36] = biological target: GABA-A receptor; anion channel (Rattus norvegicus) (UniProt O09028+P15431+P18506+P18508+P19969+P20236+P23574+P23576+P28471+P28473+P30191+P62813+P63079+P63138+Q91ZM7+Q9ES14); conditions: Compound concentration 10.0 uM
[37] = species on record: Rattus norvegicus; conditions: Compound concentration 10.0 uM
[38] = biological target: Alpha-1D adrenergic receptor (Homo sapiens) (UniProt P25100); conditions: Compound concentration 10.0 uM
Alpha-1D adrenergic receptor (Homo sapiens), sequence (P25100 whole entry): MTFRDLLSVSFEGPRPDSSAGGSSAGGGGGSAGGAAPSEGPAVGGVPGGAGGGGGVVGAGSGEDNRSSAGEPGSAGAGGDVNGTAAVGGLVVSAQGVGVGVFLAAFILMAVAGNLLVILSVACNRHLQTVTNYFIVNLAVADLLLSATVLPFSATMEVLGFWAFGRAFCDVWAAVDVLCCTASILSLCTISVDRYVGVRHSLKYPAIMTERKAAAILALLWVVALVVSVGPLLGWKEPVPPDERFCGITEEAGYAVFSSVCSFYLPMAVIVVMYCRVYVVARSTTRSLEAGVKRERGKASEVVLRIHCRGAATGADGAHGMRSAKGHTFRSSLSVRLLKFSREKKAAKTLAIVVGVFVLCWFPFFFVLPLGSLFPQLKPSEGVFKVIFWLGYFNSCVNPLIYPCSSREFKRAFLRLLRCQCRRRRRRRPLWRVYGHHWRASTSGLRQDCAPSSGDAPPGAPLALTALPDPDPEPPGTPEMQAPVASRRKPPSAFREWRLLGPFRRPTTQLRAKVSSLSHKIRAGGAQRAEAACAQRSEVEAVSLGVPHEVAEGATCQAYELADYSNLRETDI

[39] = biological target: Sigma intracellular receptor 2 (Homo sapiens) (UniProt Q5BJF2); conditions: Compound concentration 10.0 uM
[40] = biological target: Sigma non-opioid intracellular receptor 1 (Homo sapiens) (UniProt Q99720); conditions: Compound concentration 10.0 uM

T1 sequence (Q01959 whole entry): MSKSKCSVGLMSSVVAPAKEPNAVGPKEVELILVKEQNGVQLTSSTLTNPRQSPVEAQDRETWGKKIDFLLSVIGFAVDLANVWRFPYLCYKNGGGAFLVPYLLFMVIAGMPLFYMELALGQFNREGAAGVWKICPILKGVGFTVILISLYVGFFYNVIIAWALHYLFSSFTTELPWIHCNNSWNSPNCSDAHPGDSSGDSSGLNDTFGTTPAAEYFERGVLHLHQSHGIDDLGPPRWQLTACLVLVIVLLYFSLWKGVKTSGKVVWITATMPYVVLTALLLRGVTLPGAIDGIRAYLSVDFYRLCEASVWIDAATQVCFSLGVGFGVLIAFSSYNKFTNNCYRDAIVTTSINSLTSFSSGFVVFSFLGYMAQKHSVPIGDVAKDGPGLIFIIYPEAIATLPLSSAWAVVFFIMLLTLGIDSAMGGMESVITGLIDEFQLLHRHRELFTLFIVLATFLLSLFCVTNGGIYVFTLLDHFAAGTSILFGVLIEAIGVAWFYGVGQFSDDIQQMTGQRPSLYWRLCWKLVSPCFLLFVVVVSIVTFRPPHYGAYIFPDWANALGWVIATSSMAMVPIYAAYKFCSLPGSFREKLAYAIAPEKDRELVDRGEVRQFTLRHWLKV

pKi [1]: < 5
Ki ([1]; read-out: Ki): > 10 µM
EC50 [2]: > 30 µM (not active)
IC50 [3]: > 30 µM (not active)
inhibition [4]: -6.45%
inhibition [5]: 27.7%
inhibition [6]: 15.5%
inhibition [7]: 3.73%
inhibition [8]: -9.06%
inhibition [9]: 12%
inhibition [10]: -9.2%
inhibition [11]: -1.27%
inhibition [12]: -7.46%
inhibition [13]: -6.08%
inhibition [14]: -0.9%
inhibition [15]: 5.88%
inhibition [16]: 4.06%
inhibition [17]: -5.71%
inhibition [18]: 0.68%
inhibition [19]: -2.17%
inhibition [20]: 57.6%
inhibition [21]: -0.1%
inhibition [22]: -8.09%
inhibition [23]: 22.6%
inhibition [24]: -2.74%
inhibition [25]: 7.11%
inhibition [26]: -5.14%
inhibition [27]: 20.4%
inhibition [28]: 1.49%
inhibition [29]: 19%
inhibition [30]: 1.85%
inhibition [31]: -9.92%
inhibition [32]: -0.27%
inhibition [33]: -8.98%
inhibition [34]: -0.32%
inhibition [35]: -5.75%
inhibition [36]: 1.81%
inhibition [37]: 21.3%
inhibition [38]: -4.44%
inhibition [39]: 15.8%
inhibition [40]: 33.4%
Compound: Cc1cn([C@@H](C)CC#N)c(=O)c2cc(Cn3nc(C(F)F)cc3Cl)nn12
